The target in this assay is human σ1 receptor (Homo sapiens, UniProt Q99720). Kind of assay: biochemical. On the set-up: μ and σ1 dual (binding to the σ1 receptor and the μ-opioid receptor expressed as Ki): key to the marks not given beside the values. Type of assay: binding.
Sequence of human σ1 receptor (Q99720 whole entry): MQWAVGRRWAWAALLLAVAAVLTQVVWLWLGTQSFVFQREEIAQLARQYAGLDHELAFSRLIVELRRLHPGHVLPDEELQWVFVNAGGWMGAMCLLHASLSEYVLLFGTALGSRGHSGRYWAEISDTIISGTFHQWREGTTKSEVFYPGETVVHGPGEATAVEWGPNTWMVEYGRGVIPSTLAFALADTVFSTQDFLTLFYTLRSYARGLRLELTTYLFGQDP
As to `CCC(=O)N(CC(C)(C)N1CCN(CCc2ncccc2F)CC1)c1ccccn1` [Example 70, N-(2-(4-(2-(3-fluoropyridin-2-yl)ethyl)piperazin-1-yl)-2-methylpropyl)-N-(pyridin-2-yl)propionamide], the “μ and σ1 dual (binding to the σ1 receptor and the μ-opioid receptor expressed as Ki)” value (from here on “μ and σ1 dual”) was “++”.
On to `CCC(=O)N(CC1(N2CCN(CC(C)C)CC2)CCSCC1)c1cccc(C(F)(F)F)n1` [Example 204, N-((4-(4-isobutylpiperazin-1-yl)tetrahydro-2H-thiopyran-4-yl)methyl)-N-(6-(trifluoromethyl)pyridin-2-yl)propionamide], for which the inhibitory constant (Ki) – broadly, a dissociation constant, usually derived from enzyme kinetics or from competition with a known ligand – was below 500 nM.
The same measure, in the same setting: the figure for `CCC(=O)N(CC1(N2CCN(Cc3ccccc3)CC2)CC1)c1cnccc1C(F)(F)F` [Example 78, N-((1-(4-benzylpiperazin-1-yl)cyclopropyl)methyl)-N-(4-(trifluoromethyl)pyridin-3-yl)propionamide] is below 500 nM; for `CCNC(=O)N(CC1(N2CCN(CCc3ccccc3)CC2)CCCCC1)c1ccccc1` [Example 50, 3-ethyl-1-((1-(4-phenethylpiperazin-1-yl)cyclohexyl)methyl)-1-phenylurea] it is below 500 nM.
Take `CCC(=O)N(CC1(N2CCN(CCC(C)C)CC2)CCOC(C)(C)C1)c1ccccn1` (stereo not shown) [Example 164, N-((4-(4-isopentylpiperazin-1-yl)-2,2-dimethyltetrahydro-2H-pyran-4-yl)methyl)-N-(pyridin-2-yl)propionamide]: the “μ and σ1 dual” value is “++”.
For `CCC(=O)N(CC1(C2CCN(CC(C)C)CC2)CCOCC1)c1cccc(C(F)(F)F)n1` [Example 178, N-((4-(1-isobutylpiperidin-4-yl)tetrahydro-2H-pyran-4-yl)methyl)-N-(6-(trifluoromethyl)pyridin-2-yl)propionamide], the “μ and σ1 dual” value is on record as “++”.
`COCC(=O)N(CC1(N2CCN(CC(C)C)CC2)CCOCC1)c1cccc(C(F)(F)F)n1` [Example 39, N-((4-(4-isobutylpiperazin-1-yl)tetrahydro-2H-pyran-4-yl)methyl)-2-methoxy-N-(6-(trifluoromethyl)pyridin-2-yl)acetamide]: the “μ and σ1 dual” value is given as “++”.
In turn, `CCC(=O)N(CC1(N2CCN(Cc3ccccc3)CC2)CCOC(C)(C)C1)c1ccccn1` (stereo not shown) [Example 16, N-((4-(4-benzylpiperazin-1-yl)-2,2-dimethyltetrahydro-2H-pyran-4-yl)methyl)-N-(pyridin-2-yl)propionamide] gave an inhibitory constant (Ki) below 500 nM.
Molecule `CCC(=O)N(CC1(N2CCN(Cc3ccccc3)CC2)CCOCC1)c1ncccc1F` [Example 82, N-((4-(4-benzylpiperazin-1-yl)tetrahydro-2H-pyran-4-yl)methyl)-N-(3-fluoropyridin-2-yl)propionamide] had a Ki below 100 nM.
Consider `O=C(c1cccs1)N(CC1(N2CCN(Cc3ccccc3)CC2)CCOCC1)c1ccccn1` [Example 38, N-((4-(4-benzylpiperazin-1-yl)tetrahydro-2H-pyran-4-yl)methyl)-N-(pyridin-2-yl)thiophene-2-carboxamide], for which the “μ and σ1 dual” value was “++”.
Molecule `CCC(=O)N(CC1(N2CCN(CCC(C)C)CC2)CCOCC1)c1ncccc1F` [Example 155, N-(3-fluoropyridin-2-yl)-N-((4-(4-isopentylpiperazin-1-yl)tetrahydro-2H-pyran-4-yl)methyl)propionamide] returned a Ki below 500 nM.
`CCOCCN1CCN(C2(CN(C(=O)CC)c3ncccc3F)CCOCC2)CC1` [Example 156, N-((4-(4-(2-ethoxyethyl)piperazin-1-yl)tetrahydro-2H-pyran-4-yl)methyl)-N-(3-fluoropyridin-2-yl)propionamide]: the “μ and σ1 dual” value is on record as “++”.
As for `CCC(=O)N(CC1(N2CCN(Cc3ccccc3)CC2)CCOC(C)(C)C1)c1ncccc1C#N` (stereo not shown) [Example 68, N-((4-(4-benzylpiperazin-1-yl)-2,2-dimethyltetrahydro-2H-pyran-4-yl)methyl)-N-(3-cyanopyridin-2-yl)propionamide], the “μ and σ1 dual” value is “++”.
`CCC(=O)N(CC1(N2CCN(Cc3cccnc3)CC2)CC1)c1ccccc1` [Example 119, N-phenyl-N-((1-(4-(pyridin-3-ylmethyl)piperazin-1-yl)cyclopropyl)methyl)propionamide] showed a Ki below 500 nM.
In turn, `CCC(=O)N(CC1(N2CCN(CC(C)C)CC2)CCOCC1)c1ccccc1` [Example 135, N-((4-(4-isobutylpiperazin-1-yl)tetrahydro-2H-pyran-4-yl)methyl)-N-phenylpropionamide] returned an inhibitory constant (Ki) below 500 nM.
`CCC(=O)N(CC1(N2CC3CN(CC(C)C)CC3C2)CCOCC1)c1cccc(C(F)(F)F)n1` (stereo not shown) [Example 199, N-((4-(5-isobutylhexahydropyrrolo[3,4-c]pyrrol-2(1H)-yl)tetrahydro-2H-pyran-4-yl)methyl)-N-(6-(trifluoromethyl)pyridin-2-yl)propionamide] showed a Ki above 500 nM.
On the same count and under the same terms, the figure for `CCC(=O)N(CC1(N2CCN(CC(C)C)CC2)CCC1)c1cccc(C(F)(F)F)n1` [Example 203, N-((1-(4-isobutylpiperazin-1-yl)cyclobutyl)methyl)-N-(6-(trifluoromethyl)pyridin-2-yl)propionamide] is below 500 nM; for `CCC(=O)N(CC1(N2CCN(Cc3ccccc3)CC2)CCOCC1)c1nc(C(F)(F)F)ccc1C#N` [Example 60, N-((4-(4-benzylpiperazin-1-yl)tetrahydro-2H-pyran-4-yl)methyl)-N-(3-cyano-6-(trifluoromethyl)pyridin-2-yl)propionamide] it is below 500 nM.
Same read-out and setting: then `CCC(=O)N(CC1(N2CCN(CCOCC(C)(C)F)CC2)CCOCC1)c1cccc(C(F)(F)F)n1` [Example 189, N-((4-(4-(2-(2-fluoro-2-methylpropoxy)ethyl)piperazin-1-yl)tetrahydro-2H-pyran-4-yl)methyl)-N-(6-(trifluoromethyl)pyridin-2-yl)propionamide], with below 100 nM.
In the case of `CCC(=O)N(CC(C)C)CC1(N2CCN(Cc3ccccc3)CC2)CCOCC1` [Example 15, N-((4-(4-benzylpiperazin-1-yl)tetrahydro-2H-pyran-4-yl)methyl)-N-isobutylpropionamide], the “μ and σ1 dual” value is given as “++”.
The molecule `CCC(=O)N(CC1(N2CCN(Cc3ccccc3)CC2)CC1)c1cncc(F)c1` [Example 93, N-((1-(4-benzylpiperazin-1-yl)cyclopropyl)methyl)-N-(5-fluoropyridin-3-yl)propionamide] gave a Ki below 500 nM.
Same read-out and setting: then `CCC(=O)N(CC1(N2CCN(Cc3ccccc3)CC2)CC1)c1ncccc1C#N` [Example 80, N-((1-(4-benzylpiperazin-1-yl)cyclopropyl)methyl)-N-(3-cyanopyridin-2-yl)propionamide], with below 500 nM.
Take `CCC(=O)N(CC1(N2CCN(Cc3ccc(C(=O)NC)cc3)CC2)CCOCC1)c1ccccc1` [Example 125, N-methyl-4-((4-(4-((N-phenylpropionamido)methyl)tetrahydro-2H-pyran-4-yl)piperazin-1-yl)methyl)benzamide]: the “μ and σ1 dual” value is on record as “++”.
The molecule `CCC(=O)N(CC1(N2CCN(CCc3ccccc3)CC2)CCCCC1)c1ccccn1` [Example 21, N-((1-(4-phenethylpiperazin-1-yl)cyclohexyl)methyl)-N-(pyridin-2-yl)propionamide] returned an inhibition constant (Ki) below 500 nM.
Same read-out and setting: then `CCC(=O)N(CC1(N2CCN(CCOC3CC3)CC2)CCOCC1)c1cccc(C(F)(F)F)n1` [Example 183, N-((4-(4-(2-cyclopropoxyethyl)piperazin-1-yl)tetrahydro-2H-pyran-4-yl)methyl)-N-(6-(trifluoromethyl)pyridin-2-yl)propionamide], with below 500 nM; and `CCC(=O)N(CC1(N2CCN(Cc3ccc(F)cc3)CC2)CCOCC1)c1ccccn1` [Example 111, N-((4-(4-(4-fluorobenzyl)piperazin-1-yl)tetrahydro-2H-pyran-4-yl)methyl)-N-(pyridin-2-yl)propionamide], with below 500 nM.
The same measure, in the same setting: the figure for `CCC(=O)N(CC1(N2CCN(Cc3cccc(F)c3)CC2)CCOCC1)c1ccccn1` [Example 110, N-((4-(4-(3-fluorobenzyl)piperazin-1-yl)tetrahydro-2H-pyran-4-yl)methyl)-N-(pyridin-2-yl)propionamide] is below 500 nM; for `CCC(=O)N(CC1(N2CCN(CC(C)C)CC2)CCOC2(CCCC2)C1)c1cccc(C(F)(F)F)n1` (stereo not shown) [Example 175, N-((9-(4-isobutylpiperazin-1-yl)-6-oxaspiro[4.5]decan-9-yl)methyl)-N-(6-(trifluoromethyl)pyridin-2-yl)propionamide] it is below 500 nM.
Take `CCC(=O)N(CC1(N2CCN(C(C)c3ccccc3)CC2)CCOCC1)c1ccccn1` (stereo not shown) [Example 134, N-((4-(4-(1-phenylethyl)piperazin-1-yl)tetrahydro-2H-pyran-4-yl)methyl)-N-(pyridin-2-yl)propionamide]: the “μ and σ1 dual” value is “++”.
On to `CCNC(=O)N(CC1(N2CCN(Cc3ccccc3)CC2)CC1)c1ccccc1` [Example 52, 1-((1-(4-benzylpiperazin-1-yl)cyclopropyl)methyl)-3-ethyl-1-phenylurea], for which the Ki was below 500 nM.
On the same count and under the same terms, then `CCC(=O)N(CC1(N2CCN(C(CO)c3ccccc3)CC2)CCOCC1)c1ccccn1` (stereo not shown) [Example 181, N-((4-(4-(2-hydroxy-1-phenylethyl)piperazin-1-yl)tetrahydro-2H-pyran-4-yl)methyl)-N-(pyridin-2-yl)propionamide], with above 500 nM; and `CCC(=O)N(CC1(N2CCN(Cc3ccccc3)CC2)CCOCC1)c1ccccn1` [Example 56, N-((4-(4-benzylpiperazin-1-yl)tetrahydro-2H-pyran-4-yl)methyl)-N-(pyridin-2-yl)propionamide], with below 500 nM.
The same measure, in the same setting: then `CCC(=O)N(CC1(N2CCN(Cc3ccccc3)CC2)CCOCC1)c1ccc(F)c(C#N)n1` [Example 61, N-((4-(4-benzylpiperazin-1-yl)tetrahydro-2H-pyran-4-yl)methyl)-N-(6-cyano-5-fluoropyridin-2-yl)propionamide], with below 500 nM; and `CCC(=O)N(CC1(N2CCN(Cc3ccccc3)CC2)CC1)c1cccnc1` [Example 36, N-((1-(4-benzylpiperazin-1-yl)cyclopropyl)methyl)-N-(pyridin-3-yl)propionamide], with below 500 nM.
